According to US20230304996A1, “MICROFLUIDIC SYSTEM TO CONTROL PERFUSION, DIFFUSION AND COLLECTION OF MOLECULES OVER LONG PERIODS IN AN EX-VIVO SKIN MODEL” (GENOSKIN, priority 2020, published 2023):

Test: Diffusion of infused low molecular weight contrast agents in NativeSkin and FlowSkin models (surface colour intensity)
Assay type: in vitro ADME
Details: infused at 0.5 mg/mL, first hours of infusion; FLOWSKIN (with hypodermis) compared with NATIVESKIN (without)
Experimental: In order to characterize diffusion during the first hours of infusion in the NativeSkin° and in the FlowSkin®model, two low molecular weight contrast agents (KI: potassium Iodide, […]) and V patent blur (E131, 1 kDa) at 0.5 mg/mL have been infused in both models.
The result was similar with V patent blue (E131). Accordingly, it seems that the hypoderm facilitate the diffusion of low molecular weight agent within the FLOWSKIN® model.

color intensity visible at the surface of the FLOWSKIN model versus the NATIVESKIN model: growing faster
SMILES: [I-].[K+] [KI, potassium Iodide]
